These are literature values, as cited in patent publication US8017624B2, “Fused aminopiperidines as dipeptidyi peptidase-IV inhibitors for the treatment or prevention of diabetes” (Merck Sharp & Dohme Corp., priority 2005, dated 2011).

SMILES strings stand for the structures.

One data set has as its target T1, DPP-IV (Homo sapiens, UniProt P27487).
T1 construct: GRF is rapidly degraded in plasma to GRF[3-44]

Data set [1] relates to cardiac allograft survival. The note with it: rats; Transplantation 63: 1495-1500 (1997).
A further data set deals with hematopoiesis. The note with it: mouse, cyclophosphamide-induced neutropenia; WO 99/56753.

T1 sequence (P27487 whole entry, species assumed): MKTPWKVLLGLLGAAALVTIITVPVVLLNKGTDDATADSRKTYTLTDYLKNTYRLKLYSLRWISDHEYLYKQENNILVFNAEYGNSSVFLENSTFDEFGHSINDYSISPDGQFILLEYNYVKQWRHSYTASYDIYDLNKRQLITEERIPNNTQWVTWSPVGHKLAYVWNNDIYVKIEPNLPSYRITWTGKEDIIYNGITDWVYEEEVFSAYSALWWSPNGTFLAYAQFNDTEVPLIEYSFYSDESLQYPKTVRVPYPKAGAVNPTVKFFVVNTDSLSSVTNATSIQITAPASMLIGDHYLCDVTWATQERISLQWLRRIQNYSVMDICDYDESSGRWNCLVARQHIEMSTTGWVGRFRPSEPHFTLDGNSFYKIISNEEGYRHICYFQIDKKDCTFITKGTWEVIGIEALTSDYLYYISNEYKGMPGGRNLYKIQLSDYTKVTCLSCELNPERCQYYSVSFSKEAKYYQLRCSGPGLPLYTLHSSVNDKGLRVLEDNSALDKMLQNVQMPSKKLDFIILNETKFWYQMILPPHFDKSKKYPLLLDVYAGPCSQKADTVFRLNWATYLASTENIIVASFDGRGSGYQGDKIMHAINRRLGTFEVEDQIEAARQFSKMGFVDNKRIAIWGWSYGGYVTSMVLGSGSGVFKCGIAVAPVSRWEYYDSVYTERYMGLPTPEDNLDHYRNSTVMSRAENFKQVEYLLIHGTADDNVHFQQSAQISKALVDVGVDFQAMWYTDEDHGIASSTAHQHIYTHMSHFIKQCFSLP

Turning to `CC[C@H](C)[C@H](N)C(=O)N1CCC[C@H]1C(=O)N[C@H](C(=O)O)[C@@H](C)CC` [diprotin A], the “degradation of GRF in plasma to GRF[3-44]” value on DPP-IV is “prevented”. Consider `CC(C)N1CCC(c2ccccc2)(c2ccccc2)CC1` [Prodipine, Pro-Pro-diphenyl-phosphonate], for which, in data set [1], the cardiac allograft survival entry was “double cardiac allograft survival in rats from day 7 to day 14”.

`CC(C)[C@H](N)C(=O)N1CCC[C@H]1B(O)O` [Val-Boro-Pro]: the effect on hematopoiesis entry in the data set on hematopoiesis is reported as “stimulated hematopoiesis”.
